Converted amounts (≈) assume the structure as drawn.

A short description of this data set: physchem. As to conditions: water. It counts as physicochemical.

`CCNc1nc(NC(C)(C)C)nc(SC)n1` [terbutryn, N2-tert-butyl-N4-ethyl-6-methylthio-1,3,5-triazine-2,4-diamine] returned a solubility of about 20 µg/mL (≈ 82.9 µM).

Broadly, the solubility is the concentration that dissolves in the medium under given conditions.

(Values after patent publication US8653004B2, “Actives-comprising polymer networks, processes for producing them, and their use” (priority 2007, dated 2014).)
